# Results reported in ChEMBL document CHEMBL1201862, “PubChem BioAssay data set” (2004).
#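 48-hour exposure; five concentrations; linearly interpolated endpoints. At the GI50, growth is halved.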 The source made the active and inactive calls. Rule as the data show it: active = GI50 up to about 1.1 µM and inactive = higher.
# Tests used:
# Assay in all cases: NCI-60 cell line screen, 48 h
# SK-MEL-2 = tested on: SK-MEL-2
# Hs-578T = tested on: Hs-578T
# NCI-H23 = tested on: NCI-H23
# NCI-H522 = tested on: NCI-H522
# M14 = tested on: M14
# A549 = tested on: A549
# MOLT-4 = tested on: MOLT-4
# LOX IMVI = tested on: LOX IMVI
# UO-31 = tested on: UO-31
# OVCAR-4 = tested on: OVCAR-4
# ACHN = tested on: ACHN
# NCI/ADR-RES = tested on: NCI/ADR-RES
# MDA-N = tested on: MDA-N
# HCC 2998 = tested on: HCC 2998
# SW-620 = tested on: SW-620
# KM12 = tested on: KM12
# RXF 393 = tested on: RXF 393
# MCF7 = tested on: MCF7
# PC-3 = tested on: PC-3
# MDA-MB-231 = tested on: MDA-MB-231
# U-251 = tested on: U-251
# SR = tested on: SR
# DU-145 = tested on: DU-145
# 786-0 = tested on: 786-0
# BT-549 = tested on: BT-549
# SF-268 = tested on: SF-268
# CAKI-1 = tested on: CAKI-1
# MDA-MB-435 = tested on: MDA-MB-435
# SF-539 = tested on: SF-539
# OVCAR-3 = tested on: OVCAR-3
# NCI-H226 = tested on: NCI-H226
# COLO 205 = tested on: COLO 205
# K562 = tested on: K562
# Malme-3M = tested on: Malme-3M
# EKVX = tested on: EKVX
# OVCAR-8 = tested on: OVCAR-8
# RPMI-8226 = tested on: RPMI-8226
# SNB-75 = tested on: SNB-75
# HT-29 = tested on: HT-29
# HCT-116 = tested on: HCT-116
# HL-60 = tested on: HL-60
# SK-MEL-5 = tested on: SK-MEL-5
# HCT-15 = tested on: HCT-15
# UACC-62 = tested on: UACC-62
# OVCAR-5 = tested on: OVCAR-5
# T47D = tested on: T47D
# SK-MEL-28 = tested on: SK-MEL-28
# NCI-H460 = tested on: NCI-H460
# SNB-19 = tested on: SNB-19
# CCRF-CEM = tested on: CCRF-CEM
# SN12C = tested on: SN12C
# HOP-92 = tested on: HOP-92
# IGROV-1 = tested on: IGROV-1
# SF-295 = tested on: SF-295
# A498 = tested on: A498
# UACC-257 = tested on: UACC-257
# HOP-62 = tested on: HOP-62
# SK-OV-3 = tested on: SK-OV-3
# TK-10 = tested on: TK-10
smiles,measurement,setting,value
Cc1cc(N(CCCl)CCCl)ccc1/C=N/NC(=O)Cc1cc(=O)oc2cc(O)ccc12,GI50,SK-MEL-2,32.3 µM (inactive)
same,GI50,Hs-578T,17.2 µM (inactive)
same,GI50,NCI-H23,19.5 µM (inactive)
same,GI50,NCI-H522,13.7 µM (inactive)
same,GI50,M14,14.3 µM (inactive)
same,GI50,A549,12.2 µM (inactive)
same,GI50,MOLT-4,5.6 µM (inactive)
same,GI50,LOX IMVI,12.6 µM (inactive)
same,GI50,UO-31,22.9 µM (inactive)
same,GI50,OVCAR-4,16.6 µM (inactive)
same,GI50,ACHN,6.67 µM (inactive)
same,GI50,NCI/ADR-RES,37.6 µM (inactive)
same,GI50,MDA-N,12.7 µM (inactive)
same,GI50,HCC 2998,28.2 µM (inactive)
same,GI50,SW-620,21.4 µM (inactive)
same,GI50,KM12,16.6 µM (inactive)
same,GI50,RXF 393,16.6 µM (inactive)
same,GI50,MCF7,5.83 µM (inactive)
same,GI50,PC-3,11.9 µM (inactive)
same,GI50,MDA-MB-231,30.6 µM (inactive)
same,GI50,U-251,14.2 µM (inactive)
same,GI50,SR,7.08 µM (inactive)
same,GI50,DU-145,18.5 µM (inactive)
same,GI50,786-0,18.8 µM (inactive)
same,GI50,BT-549,13.4 µM (inactive)
same,GI50,SF-268,10.2 µM (inactive)
same,GI50,CAKI-1,6.4 µM (inactive)
same,GI50,MDA-MB-435,11.2 µM (inactive)
same,GI50,SF-539,18 µM (inactive)
same,GI50,OVCAR-3,21.3 µM (inactive)
same,GI50,NCI-H226,15.7 µM (inactive)
same,GI50,COLO 205,17.7 µM (inactive)
same,GI50,K562,9.18 µM (inactive)
same,GI50,Malme-3M,12.6 µM (inactive)
same,GI50,EKVX,20.4 µM (inactive)
same,GI50,OVCAR-8,19.5 µM (inactive)
same,GI50,RPMI-8226,16 µM (inactive)
same,GI50,SNB-75,28.6 µM (inactive)
same,GI50,HT-29,14.7 µM (inactive)
same,GI50,HCT-116,17.5 µM (inactive)
same,GI50,HL-60,12.2 µM (inactive)
same,GI50,SK-MEL-5,8.51 µM (inactive)
same,GI50,HCT-15,14.4 µM
same,GI50,UACC-62,2.37 µM (inactive)
same,GI50,OVCAR-5,31.6 µM (inactive)
same,GI50,T47D,6.85 µM (inactive)
same,GI50,SK-MEL-28,12.6 µM (inactive)
same,GI50,NCI-H460,8.93 µM (inactive)
same,GI50,SNB-19,18 µM (inactive)
same,GI50,CCRF-CEM,6.38 µM (inactive)
same,GI50,SN12C,16 µM (inactive)
same,GI50,HOP-92,27 µM (inactive)
same,GI50,IGROV-1,15.8 µM (inactive)
same,GI50,SF-295,17.2 µM (inactive)
same,GI50,A498,13.7 µM (inactive)
same,GI50,UACC-257,20.8 µM (inactive)
same,GI50,HOP-62,19 µM (inactive)
CCOC(=O)C1CCCC1S(=O)(=O)c1ccc(C)cc1 (centres undefined),GI50,Hs-578T,> 100 µM (inactive)
same,GI50,NCI-H23,> 100 µM (inactive)
same,GI50,NCI-H522,> 100 µM (inactive)
same,GI50,M14,> 100 µM (inactive)
same,GI50,A549,> 100 µM (inactive)
same,GI50,MOLT-4,> 100 µM (inactive)
same,GI50,LOX IMVI,> 100 µM (inactive)
same,GI50,UO-31,> 100 µM (inactive)
same,GI50,OVCAR-4,> 100 µM (inactive)
same,GI50,ACHN,> 100 µM (inactive)
same,GI50,NCI/ADR-RES,> 100 µM (inactive)
same,GI50,MDA-N,> 100 µM (inactive)
same,GI50,HCC 2998,> 100 µM (inactive)
same,GI50,SW-620,> 100 µM (inactive)
same,GI50,KM12,> 100 µM (inactive)
same,GI50,RXF 393,> 100 µM (inactive)
same,GI50,MCF7,> 100 µM (inactive)
same,GI50,PC-3,> 100 µM (inactive)
same,GI50,MDA-MB-231,> 100 µM (inactive)
same,GI50,U-251,> 100 µM (inactive)
same,GI50,SR,> 100 µM (inactive)
same,GI50,DU-145,> 100 µM (inactive)
same,GI50,786-0,> 100 µM (inactive)
same,GI50,BT-549,> 100 µM (inactive)
same,GI50,SF-268,> 100 µM (inactive)
same,GI50,CAKI-1,> 100 µM (inactive)
same,GI50,MDA-MB-435,79.4 µM (inactive)
same,GI50,OVCAR-3,> 100 µM (inactive)
same,GI50,NCI-H226,> 100 µM (inactive)
same,GI50,COLO 205,> 100 µM (inactive)
same,GI50,K562,> 100 µM (inactive)
same,GI50,Malme-3M,> 100 µM (inactive)
same,GI50,EKVX,> 100 µM (inactive)
same,GI50,OVCAR-8,> 100 µM (inactive)
same,GI50,RPMI-8226,> 100 µM (inactive)
same,GI50,SNB-75,84.1 µM (inactive)
same,GI50,HT-29,> 100 µM (inactive)
same,GI50,HCT-116,> 100 µM (inactive)
same,GI50,HL-60,> 100 µM (inactive)
same,GI50,SK-MEL-5,> 100 µM (inactive)
same,GI50,HCT-15,> 100 µM
same,GI50,UACC-62,> 100 µM (inactive)
same,GI50,OVCAR-5,> 100 µM (inactive)
same,GI50,T47D,> 100 µM (inactive)
same,GI50,SK-MEL-28,> 100 µM (inactive)
same,GI50,SK-OV-3,> 100 µM (inactive)
same,GI50,NCI-H460,> 100 µM (inactive)
same,GI50,SNB-19,> 100 µM (inactive)
same,GI50,CCRF-CEM,> 100 µM (inactive)
same,GI50,SN12C,> 100 µM (inactive)
same,GI50,TK-10,> 100 µM (inactive)
same,GI50,HOP-92,> 100 µM (inactive)
same,GI50,IGROV-1,> 100 µM (inactive)
same,GI50,SF-295,> 100 µM (inactive)
same,GI50,A498,45.3 µM (inactive)
same,GI50,HOP-62,> 100 µM (inactive)
CN(C)Cc1cc(C(=O)/C=C/c2ccc(O)cc2)cc(CN(C)C)c1O,GI50,SK-MEL-2,30.3 µM (inactive)
same,GI50,Hs-578T,60.5 µM (inactive)
same,GI50,NCI-H23,79.6 µM (inactive)
same,GI50,NCI-H522,23.4 µM (inactive)
same,GI50,M14,27.6 µM (inactive)
same,GI50,A549,> 100 µM (inactive)
same,GI50,MOLT-4,26.7 µM (inactive)
same,GI50,LOX IMVI,29.7 µM (inactive)
same,GI50,UO-31,63 µM (inactive)
same,GI50,ACHN,20.9 µM (inactive)
same,GI50,NCI/ADR-RES,> 100 µM (inactive)
same,GI50,MDA-N,37.7 µM (inactive)
same,GI50,HCC 2998,79.4 µM (inactive)
same,GI50,SW-620,39.4 µM (inactive)
same,GI50,KM12,24.4 µM (inactive)
same,GI50,RXF 393,59.8 µM (inactive)
same,GI50,MCF7,43.2 µM (inactive)
same,GI50,PC-3,47.4 µM (inactive)
same,GI50,MDA-MB-231,25.2 µM (inactive)
same,GI50,U-251,16 µM (inactive)
same,GI50,SR,23.1 µM (inactive)
same,GI50,DU-145,53.6 µM (inactive)
same,GI50,786-0,34.4 µM (inactive)
same,GI50,BT-549,79.4 µM (inactive)
same,GI50,SF-268,72.4 µM (inactive)
same,GI50,CAKI-1,28.8 µM (inactive)
same,GI50,MDA-MB-435,35.4 µM (inactive)
same,GI50,SF-539,55 µM (inactive)
same,GI50,OVCAR-3,18.9 µM (inactive)
same,GI50,NCI-H226,> 100 µM (inactive)
same,GI50,COLO 205,19.4 µM (inactive)
same,GI50,K562,29.5 µM (inactive)
same,GI50,EKVX,70 µM (inactive)
same,GI50,OVCAR-8,81.7 µM (inactive)
same,GI50,RPMI-8226,17.9 µM (inactive)
same,GI50,SNB-75,26.7 µM (inactive)
same,GI50,HT-29,79.3 µM (inactive)
same,GI50,HCT-116,38.2 µM (inactive)
same,GI50,HL-60,19.1 µM (inactive)
same,GI50,SK-MEL-5,18.5 µM (inactive)
same,GI50,HCT-15,44.5 µM
same,GI50,UACC-62,36.6 µM (inactive)
same,GI50,OVCAR-5,42.1 µM (inactive)
same,GI50,T47D,49.9 µM (inactive)
same,GI50,SK-MEL-28,25.9 µM (inactive)
same,GI50,NCI-H460,23.7 µM (inactive)
same,GI50,SNB-19,> 100 µM (inactive)
same,GI50,CCRF-CEM,24.8 µM (inactive)
same,GI50,SN12C,23 µM (inactive)
same,GI50,TK-10,53.7 µM (inactive)
same,GI50,HOP-92,30.2 µM (inactive)
same,GI50,IGROV-1,45.4 µM (inactive)
same,GI50,SF-295,86.3 µM (inactive)
same,GI50,A498,31.8 µM (inactive)
same,GI50,UACC-257,46.2 µM (inactive)
same,GI50,HOP-62,38 µM (inactive)
